Source: US4307100A (priority 1978, dated 1981)

Legend:
tubulin [1] = assay: Inhibition of the polymerisation of tubulin (UV, 350 nm); format: biochemical, pigs; conditions: for I50/I50 vinblastine: tartrates, tubulin concentration ~ 2 mg/ml, ratio to vinblastine
Description: (§1) The receiver of anti-tumoral indolic alkaloids of the vinblastine type is tubulin.
(§2) It is readily extracted from pigs' brains where it preresents 10% of the soluble proteins.
(§3) The polymerisation of tubulin into microtubules may readily be followed by means of a UV spectrophotometer observing at 350 nm. The maximum polymerisation velocity is thus determined; it is reduced by the addition of inhibitors of the vinblastine type and a concentration, I50, reducing the polymerisation velocity by half is obtained for each substance tested. A second effect of these products is taken into consideration: with higher doses, after complete inhibition of polymerisation, spiralisation of the tubulin is observed (verified by electron microscopy) and a new concentration, S50, corresponding to the appearance of 50% of the phenomenon is determined.
(§4) The results of each product are always compared with those of the vinblastine used as reference.
(§5) The results of the interaction tests with
(§6) tubulin carried out on the tartrates are summarised
(§7) in the following Table (tubulin concentration
(a) I50 : concentration of the product inhibiting 50% of the velocit
of polymerisation of the tubulin. I50 vinblastine = 2,10^-6.

tubulin [2] = assay: Spiralisation of tubulin (S50); format: biochemical, pigs; conditions: for S50/S50 vinblastine: tartrates, tubulin concentration ~ 2 mg/ml, ratio to vinblastine
Description: as §1, §2, §3, §4, §5, §6, §7
(b) S50 : concentration of the product required for inducing 50% of
the maximum spiralisation of the tubulin.

L1210 leukaemia = assay: Activity in the L1210 leukaemia test on mice; format: in vivo, mice (DBA/2 female); conditions: tartrate
Method: Table III below summarises the results obtained with the compound of Example 1 in the form of its tartrate in the treatment of L1210 leukaemia:
(§8) Graft→treatment interval: 24 h.
Conc. 0.5 and 1 mg/ml in physiological serum.

[3] = Toxicity of the product of Example 1 in tartrate form, single dose, mortality over 35 days; format: in vivo, DBA/2 female mice; conditions: for Distribution of mortality, 1: column 1 (day); for Distribution of mortality, 6: column 6 (day); for Distribution of mortality, 3: column 3 (day)
Description: A single dose of the test product is intraperitoneally administered to DBA/2 .female. mice and the mortality rate studied over a period of 35 days.

P388 leukaemia = assay: Activity in the P388 leukaemia test on mice; format: in vivo, mice (DBA/2 female); conditions: tartrate; for ratio of T and C (formula drawing 15): C = average life of treated, control group; for Mean survival period: control 10.5 ± 0.8
Method: Table II below exemplifies the results obtained with the compound of Example 1 in the form of its tartrate in the treatment of P388 leukaemia.
T=average life (in days) of the mice of the treated group
C=average life (in days) of the mice of the control group
Graft: P 388 (10^6 cell./mice ip)
as §8

leukaemia studied = assay: Leukaemia tests on mice, overall conclusion; format: in vivo; conditions: in words, compared with vincristine and vinblastine
Description: (2) Activity in the P388 leukaemia test on mice
(3) Activity in the L1210 leukaemia test on mice

[4] = comparison value, cited from earlier work; for DL50: i.v.

Structure (SMILES): CCC1=C[C@@H]2CN(C1)Cc1c([nH]c3ccccc13)[C@@](C(=O)OC)(c1cc3c(c(Cl)c1OC)N(C)[C@H]1[C@@](O)(C(=O)OC)[C@H](OC(C)=O)[C@]4(CC)C=CCN5CC[C@]31[C@@H]54)C2 [12-chloro-5'-noranhydrovinblastine]
- I50/I50 vinblastine (tubulin [1]): 13

Structure (SMILES): CCC12CN3Cc4c([nH]c5ccccc45)[C@@](C(=O)OC)(c4cc5c(cc4OC)N(C)[C@H]4[C@@](O)(C(=O)OC)[C@H](OC(C)=O)[C@]6(CC)C=CCN7CC[C@]54[C@@H]76)C[C@@H](C3)C1O2 (stereo partly shown) [5'-norleurosine]
- S50/S50 vinblastine (tubulin [2]): 3
- I50/I50 vinblastine (tubulin [1]): 1.0

Structure (SMILES): CCC1=C[C@@H]2CN(C1)Cc1c([nH]c3ccccc13)[C@@](C(=O)OC)(c1cc3c(cc1OC)N(C=O)[C@H]1[C@@](O)(C(=O)OC)[C@H](OC(C)=O)[C@]4(CC)C=CCN5CC[C@]31[C@@H]54)C2 [5'-noranhydrovincristine]
- S50/S50 vinblastine (tubulin [2]): 0.66
- I50/I50 vinblastine (tubulin [1]): 0.8

Structure (SMILES): CCC1=C[C@@H]2CN(C1)Cc1c([nH]c3ccccc13)[C@@](C(=O)OC)(c1cc3c(cc1OC)N(C)[C@H]1[C@@](O)(C(=O)OC)[C@H](OC(C)=O)[C@]4(CC)C=CCN5CC[C@]31[C@@H]54)C2 [5'-noranhydrovinblastine]
- "spiralising" activity (tubulin [2]; in words): does not have any "spiralising" activity
- S50/S50 vinblastine (tubulin [2]): 0.8-1.0
- I.L.S. (formula drawing 16) (L1210 leukaemia; 5 mg/kg i.p.): 40
- ratio (formula drawing 17) (L1210 leukaemia; 5 mg/kg i.p.): 140
- Mean survival period (L1210 leukaemia; 5 mg/kg i.p., control 8.6 ± 0.4): 12.0 ± 0.9 days
- I.L.S. (formula drawing 16) (L1210 leukaemia; 10 mg/kg i.p., first line): 57
- Mean survival period (L1210 leukaemia; 10 mg/kg i.p., first line, control 8.6 ± 0.4): 13.5 ± 0.9 days
- ratio (formula drawing 17) (L1210 leukaemia; 10 mg/kg i.p., first value): 157
- I.L.S. (formula drawing 16) (L1210 leukaemia; 10 mg/kg i.p., second line): 50
- Mean survival period (L1210 leukaemia; 10 mg/kg i.p., second line, control 8.6 ± 0.7): 12.9 ± 1.3 days
- ratio (formula drawing 17) (L1210 leukaemia; 10 mg/kg i.p., second value): 150
- I.L.S. (formula drawing 16) (L1210 leukaemia; 25 mg/kg i.p., first line): 65
- Mean survival period (L1210 leukaemia; 25 mg/kg i.p., first line, control 8.6 ± 0.4): 14.2 days
- ratio (formula drawing 17) (L1210 leukaemia; 25 mg/kg i.p., first value): 165
- I.L.S. (formula drawing 16) (L1210 leukaemia; 25 mg/kg i.p., second line): 57
- Mean survival period (L1210 leukaemia; 25 mg/kg i.p., second line, control 8.6 ± 0.7): 13.5 days
- ratio (formula drawing 17) (L1210 leukaemia; 25 mg/kg i.p., second value): 157
- activity in regard to the inhibition of polymerisation (tubulin [1]; in words, compared with vinblastine): activity similar to vinblastine
- I50/I50 vinblastine (tubulin [1]): 0.7
- Distribution of mortality, 1 ([3]; 50 mg/kg i.p.): 1
- Distribution of mortality, 4 ([3]; 50 mg/kg i.p., column 4 (day)): 1
- Distribution of mortality, 6 ([3]; 50 mg/kg i.p.): 1
- Distribution of mortality, 9 ([3]; 50 mg/kg i.p., column 9 (day)): 1
- Mortality over 35 days ([3]; 50 mg/kg single i.p. dose, tartrate, 5 mice): 4/5
- Distribution of mortality, 1 ([3]; 75 mg/kg i.p.): 3
- Distribution of mortality, 3 ([3]; 75 mg/kg i.p.): 1
- Distribution of mortality, 6 ([3]; 75 mg/kg i.p.): 1
- Distribution of mortality, 3 ([3]; 100 mg/kg i.p.): 3
- Mortality over 35 days ([3]; 100 mg/kg single i.p. dose, tartrate, 3 mice): 3/3
- toxicity compared with vincristine and vinblastine ([3]; in words): far less toxic
- mortality at 840 h ([3]; mouse, in vivo, ip, 25 mg/kg single i.p. dose, tartrate, 5 mice): 0%
- DL0 ([3]; single i.p. dose, tartrate, DBA/2 female mice, 35 days): 25 mg/kg
- I.L.S. (formula drawing 14) (P388 leukaemia; 5 mg/kg i.p.): 29.5
- ratio of T and C (formula drawing 15) (P388 leukaemia; 5 mg/kg i.p.): 129.5
- Mean survival period (P388 leukaemia; 5 mg/kg i.p.): 13.6 ± 0.8 days
- I.L.S. (formula drawing 14) (P388 leukaemia; 10 mg/kg i.p.): 70.5
- ratio of T and C (formula drawing 15) (P388 leukaemia; 10 mg/kg i.p.): 170.5
- Mean survival period (P388 leukaemia; 10 mg/kg i.p.): 17.9 ± 0.9 days
- I.L.S. (formula drawing 14) (P388 leukaemia; 25 mg/kg i.p.): ≥ 131.4
- ratio of T and C (formula drawing 15) (P388 leukaemia; 25 mg/kg i.p.): ≥ 231.4
- Mean survival period (P388 leukaemia; 25 mg/kg i.p.): ≥ 24.3 days
- activity on the leukaemia studied (leukaemia studied): more active than vincristine and vinblastine

Structure (SMILES): CCC1=C[C@@H]2CN(CCc3c([nH]c4ccccc34)[C@@](C(=O)OC)(c3cc4c(cc3OC)N(C=O)[C@H]3[C@@](O)(C(=O)OC)[C@H](OC(C)=O)[C@]5(CC)C=CCN6CC[C@]43[C@@H]65)C2)C1 [anhydrovincristine, reference compound]
- S50/S50 vinblastine (tubulin [2]): 1.5
- I50/I50 vinblastine (tubulin [1]): 1.8

Structure (SMILES): CCC12CN3Cc4c([nH]c5ccccc45)[C@@](C(=O)OC)(c4cc5c(cc4OC)N(C=O)[C@H]4[C@@](O)(C(=O)OC)[C@H](OC(C)=O)[C@]6(CC)C=CCN7CC[C@]54[C@@H]76)C[C@@H](C3)C1O2 (stereo partly shown) [5'-nor-Na-desmethyl Na-formyl leurosine]
- S50/S50 vinblastine (tubulin [2]): 2.5
- I50/I50 vinblastine (tubulin [1]): 2.77

Structure (SMILES): CC[C@]1(O)C[C@H]2CN(CCc3c([nH]c4ccccc34)[C@@](C(=O)OC)(c3cc4c(cc3OC)N(C=O)[C@H]3[C@@](O)(C(=O)OC)[C@H](OC(C)=O)[C@]5(CC)C=CCN6CC[C@]43[C@@H]65)C2)C1 [vincristine]
- DL10 ([4]; route not given): 3 mg/kg
- DL50 [4]: 2 mg/kg

Structure (SMILES): CC[C@]1(O)C[C@@H]2CN(CCc3c([nH]c4ccccc34)[C@@](C(=O)OC)(c3cc4c(cc3OC)N(C)[C@H]3[C@@](O)(C(=O)OC)[C@H](OC(C)=O)[C@]5(CC)C=CCN6CC[C@]43[C@@H]65)C2)C1 [vinblastine, reference compound]
- DL50 [4]: 17 mg/kg
